According to PubChem BioAssay (NCI):
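How tested: cells in 96-well plates exposed to compound for 48 hours at five concentrations. Definition used: TGI = concentration required for complete inhibition of growth.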

Legend:
Test in all cases: NCI tumour cell line growth inhibition, 48 h
786-0 renal = system: 786-0 renal
A498 renal = system: A498 renal
A549 NSCLC = system: A549 NSCLC
ACHN renal = system: ACHN renal
CAKI-1 renal = system: CAKI-1 renal
CCRF-CEM leukemia = system: CCRF-CEM leukemia
COLO 205 colon = system: COLO 205 colon
DLD-1 colon = system: DLD-1 colon
DMS 114 small cell lung = system: DMS 114 small cell lung
DMS 273 small cell lung = system: DMS 273 small cell lung
EKVX NSCLC = system: EKVX NSCLC
HCT-116 colon = system: HCT-116 colon
HCT-15 colon = system: HCT-15 colon
HL-60(TB) leukemia = system: HL-60(TB) leukemia
HOP-18 NSCLC = system: HOP-18 NSCLC
HOP-62 NSCLC = system: HOP-62 NSCLC
HOP-92 NSCLC = system: HOP-92 NSCLC
HT29 colon = system: HT29 colon
IGROV1 ovarian = system: IGROV1 ovarian
K-562 leukemia = system: K-562 leukemia
KM12 colon = system: KM12 colon
KM20L2 colon = system: KM20L2 colon
LOX IMVI melanoma = system: LOX IMVI melanoma
LXFL 529 NSCLC = system: LXFL 529 NSCLC
M14 melanoma = system: M14 melanoma
M19-MEL melanoma = system: M19-MEL melanoma
MALME-3M melanoma = system: MALME-3M melanoma
NCI-H226 lung = system: NCI-H226 lung
NCI-H460 lung = system: NCI-H460 lung
NCI-H522 lung = system: NCI-H522 lung
OVCAR-3 ovarian = system: OVCAR-3 ovarian
OVCAR-4 ovarian = system: OVCAR-4 ovarian
OVCAR-5 ovarian = system: OVCAR-5 ovarian
OVCAR-8 ovarian = system: OVCAR-8 ovarian
RPMI-8226 leukemia = system: RPMI-8226 leukemia
RXF 393 renal = system: RXF 393 renal
RXF-631 renal = system: RXF-631 renal
SF-268 CNS = system: SF-268 CNS
SF-295 CNS = system: SF-295 CNS
SF-539 CNS = system: SF-539 CNS
SK-MEL-2 melanoma = system: SK-MEL-2 melanoma
SK-MEL-28 melanoma = system: SK-MEL-28 melanoma
SK-MEL-5 melanoma = system: SK-MEL-5 melanoma
SK-OV-3 ovarian = system: SK-OV-3 ovarian
SN12C renal = system: SN12C renal
SNB-75 CNS = system: SNB-75 CNS
SNB-78 CNS = system: SNB-78 CNS
SR leukemia = system: SR leukemia
SW-620 colon = system: SW-620 colon
TK-10 renal = system: TK-10 renal
U251 CNS = system: U251 CNS
UACC-257 melanoma = system: UACC-257 melanoma
UACC-62 melanoma = system: UACC-62 melanoma
UO-31 renal = system: UO-31 renal
XF 498 CNS = system: XF 498 CNS
HCC-2998 colon = system: HCC-2998 colon
MOLT-4 leukemia = system: MOLT-4 leukemia
NCI-H23 lung = system: NCI-H23 lung
SNB-19 CNS = system: SNB-19 CNS

Measured: TGI

O=c1nc(NC2CCCCO2)ccn1CCO (stereo unspecified)
> 100 µM: 786-0 renal | A498 renal | A549 NSCLC | ACHN renal | CAKI-1 renal | CCRF-CEM leukemia | COLO 205 colon | DLD-1 colon | DMS 114 small cell lung | DMS 273 small cell lung | EKVX NSCLC | HCT-116 colon | HCT-15 colon | HL-60(TB) leukemia | HOP-18 NSCLC | HOP-62 NSCLC | HOP-92 NSCLC | HT29 colon | IGROV1 ovarian | K-562 leukemia | KM12 colon | KM20L2 colon | LOX IMVI melanoma | LXFL 529 NSCLC | M14 melanoma | M19-MEL melanoma | MALME-3M melanoma | NCI-H226 lung | NCI-H460 lung | NCI-H522 lung | OVCAR-3 ovarian | OVCAR-4 ovarian | OVCAR-5 ovarian | OVCAR-8 ovarian | RPMI-8226 leukemia | RXF 393 renal | RXF-631 renal | SF-268 CNS | SF-295 CNS | SF-539 CNS | SK-MEL-2 melanoma | SK-MEL-28 melanoma | SK-MEL-5 melanoma | SK-OV-3 ovarian | SN12C renal | SNB-75 CNS | SNB-78 CNS | SR leukemia | SW-620 colon | TK-10 renal | U251 CNS | UACC-257 melanoma | UACC-62 melanoma | UO-31 renal | XF 498 CNS

Cc1cccc(C)c1NC(=O)/C(=N/NC(N)=S)C(C)C(=O)c1ccc(Cl)cc1 (stereo unspecified)
> 100 µM: 786-0 renal | A498 renal | A549 NSCLC | ACHN renal | CAKI-1 renal | CCRF-CEM leukemia | COLO 205 colon | DLD-1 colon | DMS 114 small cell lung | DMS 273 small cell lung | EKVX NSCLC | HCC-2998 colon | HCT-116 colon | HCT-15 colon | HL-60(TB) leukemia | HOP-18 NSCLC | HOP-62 NSCLC | HOP-92 NSCLC | HT29 colon | IGROV1 ovarian | K-562 leukemia | KM12 colon | KM20L2 colon | LXFL 529 NSCLC | M14 melanoma | M19-MEL melanoma | MALME-3M melanoma | MOLT-4 leukemia | NCI-H226 lung | NCI-H23 lung | NCI-H460 lung | NCI-H522 lung | OVCAR-3 ovarian | OVCAR-4 ovarian | OVCAR-5 ovarian | OVCAR-8 ovarian | RPMI-8226 leukemia | RXF-631 renal | SF-268 CNS | SF-295 CNS | SF-539 CNS | SK-MEL-2 melanoma | SK-MEL-28 melanoma | SK-MEL-5 melanoma | SK-OV-3 ovarian | SN12C renal | SNB-19 CNS | SNB-75 CNS | SNB-78 CNS | SR leukemia | SW-620 colon | TK-10 renal | U251 CNS | UACC-257 melanoma | UACC-62 melanoma | UO-31 renal | XF 498 CNS

CC(=O)C(CN(CC(C)C)CC(C)C)C(c1ccccc1)c1c(O)c2ccccc2oc1=O (stereo unspecified)
> 100 µM: 786-0 renal | A498 renal | A549 NSCLC | ACHN renal | CAKI-1 renal | COLO 205 colon | DLD-1 colon | DMS 114 small cell lung | EKVX NSCLC | HCC-2998 colon | HCT-116 colon | HCT-15 colon | HL-60(TB) leukemia | HOP-62 NSCLC | HOP-92 NSCLC | HT29 colon | IGROV1 ovarian | KM20L2 colon | LOX IMVI melanoma | LXFL 529 NSCLC | M14 melanoma | M19-MEL melanoma | MALME-3M melanoma | MOLT-4 leukemia | NCI-H226 lung | NCI-H23 lung | NCI-H522 lung | OVCAR-3 ovarian | OVCAR-4 ovarian | OVCAR-5 ovarian | OVCAR-8 ovarian | RPMI-8226 leukemia | RXF 393 renal | RXF-631 renal | SF-268 CNS | SF-295 CNS | SF-539 CNS | SK-MEL-2 melanoma | SK-MEL-28 melanoma | SK-OV-3 ovarian | SN12C renal | SNB-19 CNS | SNB-75 CNS | SW-620 colon | TK-10 renal | UACC-257 melanoma | UACC-62 melanoma

O=C(O)c1ccc(C2COc3ccc(Cl)cc3C2)cc1 (stereo unspecified)
> 100 µM: 786-0 renal | A498 renal | A549 NSCLC | ACHN renal | CAKI-1 renal | CCRF-CEM leukemia | COLO 205 colon | DLD-1 colon | DMS 114 small cell lung | DMS 273 small cell lung | EKVX NSCLC | HCC-2998 colon | HCT-116 colon | HCT-15 colon | HL-60(TB) leukemia | HOP-18 NSCLC | HOP-62 NSCLC | HOP-92 NSCLC | HT29 colon | IGROV1 ovarian | K-562 leukemia | KM12 colon | KM20L2 colon | LOX IMVI melanoma | LXFL 529 NSCLC | M14 melanoma | M19-MEL melanoma | MALME-3M melanoma | MOLT-4 leukemia | NCI-H226 lung | NCI-H23 lung | NCI-H460 lung | NCI-H522 lung | OVCAR-3 ovarian | OVCAR-5 ovarian | OVCAR-8 ovarian | RPMI-8226 leukemia | RXF 393 renal | SF-268 CNS | SF-295 CNS | SF-539 CNS | SK-MEL-2 melanoma | SK-MEL-28 melanoma | SK-MEL-5 melanoma | SK-OV-3 ovarian | SN12C renal | SNB-19 CNS | SNB-75 CNS | SNB-78 CNS | SR leukemia | SW-620 colon | TK-10 renal | U251 CNS | UACC-257 melanoma | UACC-62 melanoma | UO-31 renal | XF 498 CNS
